Assays:
[1] = MTT cytotoxicity assay; details: human
Experimental: PC3 cells were seeded into 96-well plates (3000 cells/well) and allowed to attach overnight. Cells were then incubated in media containing 0.3-100 μM inhibitors for 72 h. 3-(4,5-Dimethylthiazol-2-yl)-2,5-diphenyltetrazolium bromide methyl thiazolyl tetrazolium (MTT) solution was prepared at 2 mg/ml concentration in PBS, sterilized by filtering through a 0.2 μm filter, and wrapped in foil to protect from light. 50 μl MTT solution was added to each well and incubated for 4 h at 37°C. Then, media was removed and 200 μl DMSO was added to each well. The plate was mixed for 5 min and the optical density was determined at 570 nm.
PC3 cells were seeded into 96-well plates (3000 cells/well) and were then incubated in media containing 0.3-100 μM inhibitors for 72 h. MTT solution was added to each well and incubated for 4 h. Optical density was read at 570 nm to determine cell viability. The EC50 was determined as the mean ± S.E.M. of three independent experiments for each compound.

[2] = system: DU145 cells; experiment: Matrigel invasion assay; format: cell-based; details: 10 μM, 22 h
Experimental: DU145 cells (8.0 × 10^4 cells/ml) in RPMI containing 0.1% fetal bovine serum (FBS) were seeded into the top chamber of BioCoat control inserts (pore size 8 μm) or BioCoat Matrigel invasion inserts with Matrigel-coated filters (BD Pharmingen). To stimulate invasion, media in the lower chamber of the insert contained 20% FBS. […] After incubation, noninvasive cells were removed using a cotton swab, and invasive cells were fixed in 100% methanol and stained with 1% crystal violet. After staining, cells were counted under a microscope (200× magnification). The percentage invasion was determined by cell counts in 5 fields of the number of cells that invaded the Matrigel matrix relative to the number of cells that migrated through the control insert.
After 22 hours, noninvasive cells were removed and invasive cells were fixed in 100% methanol, stained in […] crystal violet solution, and photographed. The number of cells that invaded the Matrigel matrix was determined by cell counts in 5 fields relative to the number of cells that migrated through the control insert. The data shown is the mean ± S.E.M. of two independent experiments. Statistical significance versus the control DMSO was determined by unpaired t-test. ***, p < 0.001.

[3] = molecular target: T1, PKD1 (Homo sapiens, UniProt Q15139); experiment: In vitro radiometric PKD kinase assay; format: biochemical; parameters: purchased Biomol International; details: for IC50: radiometric kinase assay, mean ± S.E.M.; for fold greater selectivity toward PKD1: versus PKD2 and PKD3
T1 sequence (Q15139 1-912): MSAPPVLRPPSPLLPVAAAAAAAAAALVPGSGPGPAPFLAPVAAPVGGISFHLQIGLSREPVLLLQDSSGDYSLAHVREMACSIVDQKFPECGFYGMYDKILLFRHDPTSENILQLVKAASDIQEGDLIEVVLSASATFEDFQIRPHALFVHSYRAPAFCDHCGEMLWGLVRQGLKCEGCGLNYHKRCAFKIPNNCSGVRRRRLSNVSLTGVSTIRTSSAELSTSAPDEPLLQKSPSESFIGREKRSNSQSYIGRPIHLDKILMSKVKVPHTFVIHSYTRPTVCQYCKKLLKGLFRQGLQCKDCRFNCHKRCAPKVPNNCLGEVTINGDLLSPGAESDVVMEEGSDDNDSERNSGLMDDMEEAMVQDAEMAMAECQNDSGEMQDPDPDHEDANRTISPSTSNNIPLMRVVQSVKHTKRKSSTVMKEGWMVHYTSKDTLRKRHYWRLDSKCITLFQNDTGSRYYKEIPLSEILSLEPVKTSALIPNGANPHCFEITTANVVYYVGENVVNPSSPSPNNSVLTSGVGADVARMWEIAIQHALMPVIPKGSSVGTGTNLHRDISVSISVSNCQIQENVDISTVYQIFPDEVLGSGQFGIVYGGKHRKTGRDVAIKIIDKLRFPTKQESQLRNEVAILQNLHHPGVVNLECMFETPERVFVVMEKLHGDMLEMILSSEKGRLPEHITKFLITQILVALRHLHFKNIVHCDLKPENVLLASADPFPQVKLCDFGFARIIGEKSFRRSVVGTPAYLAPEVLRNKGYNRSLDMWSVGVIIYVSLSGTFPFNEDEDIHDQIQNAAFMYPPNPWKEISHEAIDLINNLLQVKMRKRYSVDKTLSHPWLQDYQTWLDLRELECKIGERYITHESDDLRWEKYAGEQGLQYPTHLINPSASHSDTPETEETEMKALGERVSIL
Experimental: In vitro radiometric kinase assays were conducted as previously described. Briefly, 1 μCi [γ-^32P] ATP (PerkinElmer Life Sciences), 70 μM ATP, 50 ng purified recombinant human PKD1 (Biomol International, Plymouth Meeting, PA), PKD2 (SignalChem, Richmond, BC, Canada), or CAMKIIα (Enzo Life Sciences) or 75 ng PKD3 (Enzo Life Sciences), and 2.5 μg syntide-2 (Sigma) in 50 μl kinase buffer containing 50 mM Tris-HCl, pH 7.5, 4 mM MgCl2, and 10 mM β-mercaptoethanol. For the CAMK assay, 0.5 mM CaCl2 and 30 ng/μl calmodulin were pre-incubated for 10 min on ice, and then added to each reaction mixture. The reaction was incubated at 30°C for 10 min, and 25 μl of the reaction mixture was then spotted onto Whatman P81 filter paper (Whatman Inc., Clifton, NJ). The filter papers were washed 3 times in 0.5% phosphoric acid, air-dried, and counted using a Beckman LS6500 multipurpose scintillation counter (Beckman).
The in vitro inhibitory activities of the novel compounds toward PKD were determined using radiometric PKD kinase activity assays. Recombinant human PKD1, -2, or -3 was incubated with the substrate, syntide-2, in the presence of 10 different concentrations of each compound. IC50 values were determined for each compound by plotting percent PKD activity versus compound concentration for each point.
A-E, inhibition of recombinant human PKD1 in vitro. […] A 10-point concentration curve was generated for each compound for IC50 determination. Each IC50 was determined as the mean ± S.E.M. of three independent experiments with triplicate determinations at each concentration in each experiment. Representative graphs are shown.

O=C1NCCSc2c1sc1ccc(O)cc21 [kb-NB142-70]
EC50 at 72 h ([1]; PC3 cells): 8.03 µM
percent invasion [2]: 10%
fold greater inhibition of PKD1 than the parental compound CID755673 [3]: 7 fold
IC50 [3]: 0.0283 ± 0.0023 µM
fold greater selectivity toward PKD1 [3]: about 2 fold

O=C1NCCCc2c1oc1ccc(O)cc21 [CID755673, 7-Hydroxy-2,3,4,5-tetrahydro-[1]benzoxolo[2,3-c]azepin-1-one]
EC50 at 72 h ([1]; PC3 cells): 320 µM
inhibition of invasion (in words) [2]: significantly inhibited invasion
IC50 [3]: 0.182 ± 0.027 µM

O=C1NCCSc2c1sc1ccc(O)c(I)c21 [kb-NB165-31]
EC50 at 72 h [1]: 31.9 µM
inhibition of invasion (in words) [2]: levels similar to the parental compound
IC50 [3]: 0.114 ± 0.0239 µM

COc1ccc2sc3c(c2c1)SCCNC3=O [kb-NB165-09]
EC50 at 72 h ([1]; PC3 cells): 50 µM
percent invasion [2]: 10%
IC50 [3]: 0.0825 ± 0.0046 µM

O=C1NCCCSc2c1sc1ccc(O)cc21 [kb-NB165-92]
EC50 at 72 h [1]: 78.3 µM
inhibition of invasion (in words) [2]: levels similar to the parental compound
IC50 [3]: 0.111 ± 0.006 µM
fold reduction of potency for PKD1 ([3]; versus kb-NB142-70): 2-4 fold

COc1ccc2sc3c(c2c1)SCCCNC3=O [kb-NB184-02]
EC50 at 72 h [1]: 33.8 µM
inhibition of invasion (in words) [2]: levels similar to the parental compound
IC50 [3]: 0.193 ± 0.0274 µM
fold greater selectivity toward PKD1 [3]: about 2 fold

— paper PMC2873968, “Novel protein kinase D inhibitors cause potent arrest in prostate cancer cell growth and motility” (BMC Chemical Biology, 2010)
